# Measurements from PubChem BioAssay (NCI).
#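 Values below derive from 48-hour exposures of cells grown in 96-well plates, with endpoints linearly interpolated between the two concentrations bracketing the appropriate inhibition level. At the TGI there is no net growth.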
# Legend:
# Assay in all cases: NCI tumour cell line growth inhibition, 48 h
# 786-0 renal = system: 786-0 renal
# A549 NSCLC = system: A549 NSCLC
# ACHN renal = system: ACHN renal
# CAKI-1 renal = system: CAKI-1 renal
# CCRF-CEM leukemia = system: CCRF-CEM leukemia
# COLO 205 colon = system: COLO 205 colon
# DLD-1 colon = system: DLD-1 colon
# DMS 114 small cell lung = system: DMS 114 small cell lung
# DMS 273 small cell lung = system: DMS 273 small cell lung
# HCC-2998 colon = system: HCC-2998 colon
# HCT-116 colon = system: HCT-116 colon
# HL-60(TB) leukemia = system: HL-60(TB) leukemia
# HOP-18 NSCLC = system: HOP-18 NSCLC
# HOP-62 NSCLC = system: HOP-62 NSCLC
# HOP-92 NSCLC = system: HOP-92 NSCLC
# HT29 colon = system: HT29 colon
# IGROV1 ovarian = system: IGROV1 ovarian
# K-562 leukemia = system: K-562 leukemia
# KM12 colon = system: KM12 colon
# LOX IMVI melanoma = system: LOX IMVI melanoma
# LXFL 529 NSCLC = system: LXFL 529 NSCLC
# M14 melanoma = system: M14 melanoma
# M19-MEL melanoma = system: M19-MEL melanoma
# MALME-3M melanoma = system: MALME-3M melanoma
# MOLT-4 leukemia = system: MOLT-4 leukemia
# NCI-H23 lung = system: NCI-H23 lung
# NCI-H460 lung = system: NCI-H460 lung
# NCI-H522 lung = system: NCI-H522 lung
# OVCAR-3 ovarian = system: OVCAR-3 ovarian
# OVCAR-4 ovarian = system: OVCAR-4 ovarian
# OVCAR-5 ovarian = system: OVCAR-5 ovarian
# OVCAR-8 ovarian = system: OVCAR-8 ovarian
# RXF 393 renal = system: RXF 393 renal
# SF-268 CNS = system: SF-268 CNS
# SF-295 CNS = system: SF-295 CNS
# SF-539 CNS = system: SF-539 CNS
# SK-MEL-28 melanoma = system: SK-MEL-28 melanoma
# SK-MEL-5 melanoma = system: SK-MEL-5 melanoma
# SN12C renal = system: SN12C renal
# SNB-19 CNS = system: SNB-19 CNS
# SNB-75 CNS = system: SNB-75 CNS
# SNB-78 CNS = system: SNB-78 CNS
# SR leukemia = system: SR leukemia
# SW-620 colon = system: SW-620 colon
# TK-10 renal = system: TK-10 renal
# U251 CNS = system: U251 CNS
# UACC-257 melanoma = system: UACC-257 melanoma
# UACC-62 melanoma = system: UACC-62 melanoma
# UO-31 renal = system: UO-31 renal
# XF 498 CNS = system: XF 498 CNS
# A498 renal = system: A498 renal
# EKVX NSCLC = system: EKVX NSCLC
# HCT-15 colon = system: HCT-15 colon
# KM20L2 colon = system: KM20L2 colon
# NCI-H226 lung = system: NCI-H226 lung
# RPMI-8226 leukemia = system: RPMI-8226 leukemia
# SK-MEL-2 melanoma = system: SK-MEL-2 melanoma
# SK-OV-3 ovarian = system: SK-OV-3 ovarian
smiles,measurement,setting,value
CCOC(=O)c1cc2c(cn1)[nH]c1cccc(N)c12,TGI,786-0 renal,> 100 µM
same,TGI,A549 NSCLC,> 100 µM
same,TGI,ACHN renal,> 100 µM
same,TGI,CAKI-1 renal,> 100 µM
same,TGI,CCRF-CEM leukemia,> 100 µM
same,TGI,COLO 205 colon,> 100 µM
same,TGI,DLD-1 colon,> 100 µM
same,TGI,DMS 114 small cell lung,> 100 µM
same,TGI,DMS 273 small cell lung,> 100 µM
same,TGI,HCC-2998 colon,> 100 µM
same,TGI,HCT-116 colon,> 100 µM
same,TGI,HL-60(TB) leukemia,28.6 µM
same,TGI,HOP-18 NSCLC,> 100 µM
same,TGI,HOP-62 NSCLC,> 100 µM
same,TGI,HOP-92 NSCLC,> 100 µM
same,TGI,HT29 colon,> 100 µM
same,TGI,IGROV1 ovarian,> 100 µM
same,TGI,K-562 leukemia,> 100 µM
same,TGI,KM12 colon,> 100 µM
same,TGI,LOX IMVI melanoma,> 100 µM
same,TGI,LXFL 529 NSCLC,> 100 µM
same,TGI,M14 melanoma,> 100 µM
same,TGI,M19-MEL melanoma,> 100 µM
same,TGI,MALME-3M melanoma,> 100 µM
same,TGI,MOLT-4 leukemia,> 100 µM
same,TGI,NCI-H23 lung,> 100 µM
same,TGI,NCI-H460 lung,> 100 µM
same,TGI,NCI-H522 lung,> 100 µM
same,TGI,OVCAR-3 ovarian,> 100 µM
same,TGI,OVCAR-4 ovarian,> 100 µM
same,TGI,OVCAR-5 ovarian,> 100 µM
same,TGI,OVCAR-8 ovarian,> 100 µM
same,TGI,RXF 393 renal,> 100 µM
same,TGI,SF-268 CNS,> 100 µM
same,TGI,SF-295 CNS,> 100 µM
same,TGI,SF-539 CNS,> 100 µM
same,TGI,SK-MEL-28 melanoma,> 100 µM
same,TGI,SK-MEL-5 melanoma,> 100 µM
same,TGI,SN12C renal,> 100 µM
same,TGI,SNB-19 CNS,> 100 µM
same,TGI,SNB-75 CNS,> 100 µM
same,TGI,SNB-78 CNS,> 100 µM
same,TGI,SR leukemia,> 100 µM
same,TGI,SW-620 colon,> 100 µM
same,TGI,TK-10 renal,> 100 µM
same,TGI,U251 CNS,> 100 µM
same,TGI,UACC-257 melanoma,> 100 µM
same,TGI,UACC-62 melanoma,> 100 µM
same,TGI,UO-31 renal,> 100 µM
same,TGI,XF 498 CNS,> 100 µM
O=C(NC12CC3CC(CC(C3)C1)C2)C(=O)c1c[nH]c2ccc([N+](=O)[O-])cc12,TGI,786-0 renal,45.9 µM
same,TGI,A498 renal,98 µM
same,TGI,A549 NSCLC,> 41.1 µM
same,TGI,ACHN renal,> 100 µM
same,TGI,CAKI-1 renal,> 100 µM
same,TGI,CCRF-CEM leukemia,> 100 µM
same,TGI,COLO 205 colon,> 100 µM
same,TGI,DMS 114 small cell lung,> 100 µM
same,TGI,DMS 273 small cell lung,45 µM
same,TGI,EKVX NSCLC,> 100 µM
same,TGI,HCC-2998 colon,> 100 µM
same,TGI,HCT-116 colon,> 100 µM
same,TGI,HCT-15 colon,> 100 µM
same,TGI,HL-60(TB) leukemia,> 100 µM
same,TGI,HOP-18 NSCLC,> 90.9 µM
same,TGI,HOP-62 NSCLC,> 59.1 µM
same,TGI,HOP-92 NSCLC,> 90.5 µM
same,TGI,HT29 colon,> 100 µM
same,TGI,IGROV1 ovarian,> 100 µM
same,TGI,K-562 leukemia,> 100 µM
same,TGI,KM12 colon,> 100 µM
same,TGI,KM20L2 colon,> 100 µM
same,TGI,LOX IMVI melanoma,> 52 µM
same,TGI,LXFL 529 NSCLC,> 100 µM
same,TGI,M14 melanoma,> 100 µM
same,TGI,M19-MEL melanoma,> 100 µM
same,TGI,MALME-3M melanoma,> 94.5 µM
same,TGI,MOLT-4 leukemia,> 100 µM
same,TGI,NCI-H226 lung,63.6 µM
same,TGI,NCI-H23 lung,> 100 µM
same,TGI,NCI-H460 lung,> 72.3 µM
same,TGI,NCI-H522 lung,> 100 µM
same,TGI,OVCAR-3 ovarian,> 100 µM
same,TGI,OVCAR-4 ovarian,54.4 µM
same,TGI,OVCAR-5 ovarian,> 100 µM
same,TGI,OVCAR-8 ovarian,> 100 µM
same,TGI,RPMI-8226 leukemia,> 100 µM
same,TGI,RXF 393 renal,> 94.6 µM
same,TGI,SF-268 CNS,43.4 µM
same,TGI,SF-295 CNS,37.9 µM
same,TGI,SF-539 CNS,> 100 µM
same,TGI,SK-MEL-2 melanoma,> 100 µM
same,TGI,SK-MEL-28 melanoma,> 100 µM
same,TGI,SK-MEL-5 melanoma,> 100 µM
same,TGI,SK-OV-3 ovarian,> 100 µM
same,TGI,SN12C renal,> 100 µM
same,TGI,SNB-19 CNS,> 30.3 µM
same,TGI,SNB-75 CNS,52.8 µM
same,TGI,SR leukemia,> 100 µM
same,TGI,SW-620 colon,> 100 µM
same,TGI,TK-10 renal,> 100 µM
same,TGI,U251 CNS,> 46.8 µM
same,TGI,UACC-257 melanoma,> 100 µM
same,TGI,UACC-62 melanoma,> 77.1 µM
same,TGI,UO-31 renal,> 100 µM
same,TGI,XF 498 CNS,60.6 µM
